# Measurements from patent US8598132B2, “Glycosylated indolocarbazoles, method for obtaining same and uses thereof” (Universidad de Oviedo, priority 2008, dated 2013).
# Legend:
# [1] = target: T1, AmpKa1 (Homo sapiens, UniProt Q13131); experiment: LabChip (Caliper) kinase assay, AmpKa1; type: biochemical; conditions: read-out: remaining kinase activity (in %) / percentage of inhibition; for inhibition at 0.01 µM: compound at 10 nM; for inhibition at 0.1 µM: compound at 100 nM
# T1 construct: purchased Carna Biosciences
# Procedure: (§1) The analysis of kinase activity described here was performed using LabChip (Caliper Life Sciences), specifically the Caliper LC3000 and the EZ Reader II instruments.
# (§2) The kinase assay used measures the conversion of a fluorescent peptide (substrate) to a phosphorylated product. The reaction mixture, in a microplate well, is introduced by a capillary in a chip where the non-phosphorylated substrate and the phosphorylated product are separated by […]. The intensity of the fluorescent signal over time is related to the reaction progress. The phosphorylated product migrates quicker than the non-phosphorylated substrate and the signals of the two forms of the peptide appear as differentiated peaks. The Caliper determines the peak height and calculates the ratio of product to the peak sum (P/(P+S)). This value is used to compare wells with compounds and wells with controls and thus determine the % of inhibition for the given product.
# (§3) The followings kinases were used for the enzymatic inhibition studies, between brackets the value of the Michaelis-Menten constant, Km, of the ATP (Adenosine triphosphate) for each kinase, in μM: obtained from Carna Biosciences: MAPKAPK2 (4.6), AurA (3.6), AurB (5), PKCζ (3.8), RSK1 (23.3), PRAK (5), Erk1 (33.4), PKD2 (32.1), CK1d (16.3), CHK1 (33), ABL (61.7), FYN (36), LYNa (17), CHK2 (57.8), MET (79.5), LCK (28.5), SRC (38), GSK3β (7.3), Erk2 (62.1), PKACα (1.7), AKT2 (186.1), INSR (871.8), p38a (396.5), AKT1(48), MSK1 (21.2), PKCβ2 (84.8), ROCK2 (3.3), PIM2 (4.9), AMPK (38.6), KDR (164.8), IRAK4 (196.5), SGK1 (121.8), SYK (33.5); obtained from Invitrogen: CDK2 (57.6), BTK (123), HGK (80); obtained from Upstate: MST2 (36.6), PKGα (16), PAK2 (1.9), IGF1R (320), FGFR1 (171), MARK1 (33), CAMK2δ (22.4), c-TAK1 (66), DYRK1a (18.1), CaMK4 (3.9), FLT3 (350), c-Raf (6.2), P70S6K (95).
# (§4) The compounds were dissolved in 100% DMSO and were diluted at 25 times the final concentration desired for the assay. In the case of the determination of Cl50, serial dilutions were made to reach eight concentrations and give rise to the inhibition curve. 1 μL of each concentration is transferred, in duplicate to a 384-well microplate. 12 μL of enzymatic buffer is added to each well containing purified kinase (several suppliers as indicated above), 100 mM HEPES, pH 7.5, 1 mM DTT (Calbiochem), 0.002% Brij-35 (Sigma) and also in presence of 10 mM MgCl2 as cofactor, except for INSR and IRAK4 wherein 10 mM MnCl2 is used instead of MgCl2. For the kinases CAMK26 and CAMK4, 1 mM CaCl2 and 6.7 μg/mL of calmodulin are also added. For KDR kinase, 0.05% of the CHAPSO detergent is added. For the c-Raf kinase, 10 mM MnCl2 is added. For PKCβ2 0.02 μg/mL of PS/PMA is added. For PKGα se 10 μM of cGMP (cyclic guanosine monophosphate) is added. The compound and the enzyme are left for 15 minutes preincubation and, then, the following are added to each well: 12 μL of peptide buffer/ATP containing 100 mM HEPES, pH 7.5, 1.5 μM peptide marker with fluorescein (specific for the corresponding kinase), ATP (at concentration KM), and 0.002% Brij-35 to start the reaction. Generally, the reactions are incubated for 1-1.5 h at ambient temperature to obtain an adequate conversion (15-40%) of the peptide to the phosphorylated product. The reactions were ended by the addition of 45 μL of buffer containing 0 mM EDTA. The microplates were read by the LabChip 3000 using a 12-channel LabChip. The P/(P+S) values were obtained as described above and the CI50 curves were generated using XIfit. […]
# [2] = target: T2, MST2 (Homo sapiens, UniProt Q13188); experiment: LabChip (Caliper) kinase assay, MST2; type: biochemical; conditions: read-out: remaining kinase activity (in %) / percentage of inhibition; for inhibition at 0.01 µM: compound at 10 nM; for inhibition at 0.1 µM: compound at 100 nM
# T2 construct: purchased Upstate
# T2 sequence (Q13188 1-491): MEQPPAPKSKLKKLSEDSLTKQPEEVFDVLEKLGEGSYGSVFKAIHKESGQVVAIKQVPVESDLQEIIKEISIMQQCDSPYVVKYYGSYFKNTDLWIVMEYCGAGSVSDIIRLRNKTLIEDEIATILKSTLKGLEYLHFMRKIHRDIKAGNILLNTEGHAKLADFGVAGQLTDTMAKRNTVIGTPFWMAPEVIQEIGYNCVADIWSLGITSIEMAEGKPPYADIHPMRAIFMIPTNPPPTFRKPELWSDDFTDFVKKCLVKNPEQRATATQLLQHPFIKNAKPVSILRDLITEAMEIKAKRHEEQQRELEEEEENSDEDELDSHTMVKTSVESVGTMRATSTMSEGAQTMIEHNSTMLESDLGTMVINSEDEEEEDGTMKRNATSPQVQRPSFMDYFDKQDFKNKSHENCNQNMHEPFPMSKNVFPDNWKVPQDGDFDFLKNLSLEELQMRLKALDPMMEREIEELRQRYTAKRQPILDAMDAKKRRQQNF
# Procedure: as §1, §2, §3, §4
# T1 sequence (Q13131 whole entry): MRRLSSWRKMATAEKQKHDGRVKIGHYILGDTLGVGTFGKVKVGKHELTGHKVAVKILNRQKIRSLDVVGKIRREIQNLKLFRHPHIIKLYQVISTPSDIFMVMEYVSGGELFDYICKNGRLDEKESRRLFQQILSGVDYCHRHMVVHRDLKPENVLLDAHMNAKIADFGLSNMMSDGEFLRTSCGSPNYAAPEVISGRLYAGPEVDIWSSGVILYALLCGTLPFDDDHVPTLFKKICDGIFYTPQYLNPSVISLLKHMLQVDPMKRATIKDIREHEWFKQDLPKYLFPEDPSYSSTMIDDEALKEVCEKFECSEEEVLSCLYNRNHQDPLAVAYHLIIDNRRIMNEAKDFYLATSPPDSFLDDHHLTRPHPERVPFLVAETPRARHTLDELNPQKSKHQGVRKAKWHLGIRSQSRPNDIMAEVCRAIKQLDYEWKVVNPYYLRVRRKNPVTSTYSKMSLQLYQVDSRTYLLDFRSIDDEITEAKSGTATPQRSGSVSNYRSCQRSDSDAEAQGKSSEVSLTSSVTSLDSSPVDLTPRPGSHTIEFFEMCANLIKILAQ
# T1 sequence (Q9Y478 whole entry partner): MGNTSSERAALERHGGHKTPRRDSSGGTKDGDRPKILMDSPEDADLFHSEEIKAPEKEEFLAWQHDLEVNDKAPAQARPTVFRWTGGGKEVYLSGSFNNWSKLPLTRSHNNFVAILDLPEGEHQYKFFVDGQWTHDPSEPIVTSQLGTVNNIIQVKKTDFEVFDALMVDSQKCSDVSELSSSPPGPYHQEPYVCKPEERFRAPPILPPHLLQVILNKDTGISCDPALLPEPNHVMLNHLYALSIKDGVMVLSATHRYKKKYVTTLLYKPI
# T1 sequence (P54619 whole entry partner): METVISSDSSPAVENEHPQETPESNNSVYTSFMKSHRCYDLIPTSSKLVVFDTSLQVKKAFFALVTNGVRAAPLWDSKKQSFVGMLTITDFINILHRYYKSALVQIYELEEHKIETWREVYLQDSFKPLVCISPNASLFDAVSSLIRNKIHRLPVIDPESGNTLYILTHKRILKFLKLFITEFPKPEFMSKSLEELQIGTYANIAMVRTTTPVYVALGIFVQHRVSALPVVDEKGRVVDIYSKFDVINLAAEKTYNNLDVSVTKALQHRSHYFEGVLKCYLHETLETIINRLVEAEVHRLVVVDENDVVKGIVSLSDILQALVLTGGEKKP
SMILES,inhibition at 0.01 µM [1] [%],inhibition at 0.1 µM [1] [%],inhibition at 0.01 µM [2] [%],inhibition at 0.1 µM [2] [%]
"C[C@@H]1O[C@@H](n2c3ccccc3c3c4c(c5c6ccccc6[nH]c5c32)C(=O)NC4=O)[C@H](O)[C@H](O)[C@H]1O [formula (III), N^13-1′-β-L-rhamnosylarcyriaflavin]",1,11,2,10
"C[C@@H]1O[C@@H](n2c3ccccc3c3c4c(c5c6ccccc6[nH]c5c32)C(=O)NC4=O)C[C@H](O)[C@H]1O [formula (IV), N^13-1′-β-L-olivosylarcyriaflavin]",3,21,2,15
"C[C@@H]1O[C@@H](n2c3ccccc3c3c4c(c5c6ccccc6[nH]c5c32)C(=O)NC4=O)C[C@@H](O)[C@H]1O [formula (V), N^13-1′-β-L-digitoxosylarcyriaflavin]",8,28,16,54
"C[C@H]1O[C@@H](n2c3ccccc3c3c4c(c5c6ccccc6[nH]c5c32)C(=O)NC4=O)C[C@@H](O)[C@@H]1O [formula (VI), N^13-1′-β-D-olivosylarcyriaflavin]",5,33,13,65
"C[C@@H]1O[C@@H](n2c3ccccc3c3c4c(c5c6ccccc6[nH]c5c32)CNC4=O)[C@H](O)[C@H](O)[C@H]1O [formula (XII), N^13-1′-β-L-rhamnosyl-k252c]",1,7,4,19
"C[C@@H]1O[C@@H](n2c3ccccc3c3c4c(c5c6ccccc6[nH]c5c32)CNC4=O)C[C@H](O)[C@H]1O [formula (XIII), N^13-1′-β-L-olivosyl-k252c]",-3,10,4,33
"C[C@@H]1O[C@@H](n2c3ccccc3c3c4c(c5c6ccccc6[nH]c5c32)CNC4=O)C[C@@H](O)[C@H]1O [formula (XIV), N^13-1′-β-L-digitoxosyl-k252c]",2,1,7,34
"C[C@H]1O[C@@H](n2c3ccccc3c3c4c(c5c6ccccc6[nH]c5c32)CNC4=O)C[C@@H](O)[C@@H]1O [formula (XV), N^13-1′-β-D-olivosyl-k252c]",-3,9,12,78
